ChEMBL document CHEMBL1156829 (Proc Natl Acad Sci U S A, 2008)

Tests used:
[1] = test system: Plasmodium falciparum; test: NOVARTIS: Inhibition of Plasmodium falciparum 3D7 (drug-susceptible) proliferation in erythrocyte-based infection assay; type: functional, organism-based; conditions: Plasmodium falciparum, 3D7
[2] = test system: Plasmodium falciparum; test: NOVARTIS: Inhibition of Plasmodium falciparum W2 (drug-resistant) proliferation in erythrocyte-based infection assay; type: functional, organism-based; conditions: Plasmodium falciparum, W2; read-out: EC50
[3] = NOVARTIS: Cytotoxicity against human hepatocellular carcinoma cell line (Huh7); type: toxicity, cell-based, Huh-7; conditions: Huh7 cells (hepatocellular carcinoma cell line)

| SMILES | EC50 [1] [nM] | EC50 [2] [nM] | CC50 [3] [nM] |
| --- | --- | --- | --- |
| N=c1n(Cc2ccccc2)c2ccccc2n1CC(O)c1ccc(Cl)cc1 (configuration not stated) | 257 | 50.6 | 11100 |
| CC(=NNC(N)=S)C(C)=NNC(N)=S | 572 | 462 | > 100000 |
| CCc1nc2nc(C)cc(NCCc3cccc(C)c3)n2n1 | 334 | 453 | > 100000 |
| COc1ccc(-c2c(C(F)(F)F)nn(C)c2NC(=O)Nc2ccc(F)cc2F)cc1 | 242 | 356 | 78200 |
| CN(C)CCCn1c(N)c(-c2nc3ccccc3[nH]2)c2nc(C#N)c(C#N)nc21 | 463 | 274 | 60200 |
| COc1ccc(C2CC(=O)C3=C(C2)NC(C)=C(C(=O)OC(C)C)C3c2ccccc2F)cc1OC (configuration not stated) | 34.7 | 33.2 | 7320 |
| CC(C)CCNCC(O)Cn1c2ccc(Cl)cc2c2cc(Cl)ccc21 (configuration not stated) | 192 | 96.6 | 20600 |
| CCOc1ccc(-c2nonc2NC(=O)c2ccco2)cc1OCC | 590 | 481 | > 100000 |
| Cn1nc(C(F)(F)F)c(-c2ccc(Br)cc2)c1NC(=O)Nc1ccc(F)cc1F | 212 | 206 | 42800 |
| N=c1ccn(CC(=O)N2CCCc3ccccc32)c2ccccc12 | 1490 | 453 | > 100000 |
| NNC(=O)CNC(c1ccccc1)c1cc(Br)ccc1NC(=O)c1ccccc1Br (configuration not stated) | 342 | 453 | > 100000 |
| CC(C)NC(=O)c1ccc(OC2CCN(CC3CCCCC3)CC2)c(Cl)c1 | 476 | 298 | 65900 |
| O=C(NCCCCCCCCNC(=O)Nc1ccc(C2=NCCN2)cc1)Nc1ccc(C2=NCCN2)cc1 | 85.4 | 45.9 | > 10000 |
| COc1cc(OC)cc(C(=O)NCc2n[nH]c(=S)n2-c2cccc(Cl)c2)c1 | 565 | 450 | > 100000 |
| CCOC(=O)c1nnn(-c2nonc2N)c1-c1ccc(OC)c(OC)c1 | 513 | 450 | > 100000 |
| Cc1nnc(SCC(=O)NCc2ccco2)n1-c1ccc(F)cc1 | > 8950 | 459 | > 100000 |
| Oc1ccc(-c2cnccn2)cc1CNC1CCN(Cc2ccccc2)CC1 | 385 | 380 | 82800 |
| COc1ccc(-c2nc(-c3ccncc3)cnc2N)cc1OC | 35.8 | 45.7 | > 10000 |
| CCCCCC(=O)Oc1ccccc1-c1nc2cc(C)ccn2c1NC(C)(C)CC(C)(C)C | 703 | 44.8 | > 10000 |
| CCC1CCCCN1S(=O)(=O)c1cc(Br)cc2c1N(C(=O)C1CC1)CC2 (configuration not stated) | 2840 | 448 | > 100000 |
| c1ccc2c(NCCc3c[nH]c4ccccc34)c3ccccc3nc2c1 | 86 | 31.6 | 7080 |
| O=C(NCc1cccs1)c1ccc(OC2CCN(CC3CCCCC3)CC2)c(Cl)c1 | 719 | 44.6 | > 10000 |
| O=C(Nc1ccc(C23CC4CC(CC(c5ccccc5)(C4)C2)C3)cc1)c1cccs1 | 645 | 468 | > 100000 |
| COc1cc(NC(C)CCCN(Cc2ccccc2OC)C(=O)c2ccc(Cl)c([N+](=O)[O-])c2)c2ncccc2c1 (configuration not stated) | 1200 | < 18.2 | > 3910 |
| O=C(Nc1nc2ccccc2s1)c1ccc(S(=O)(=O)N2CCOCC2)cc1 | > 1250 | > 46.1 | > 10000 |
| CC(=O)N(C1=C(N2CCCCC2)C(=O)c2ccccc2C1=O)c1cccc(F)c1 | 146 | 109 | 23700 |
| CCOC(=O)c1c(C)[nH]c(C)c1S(=O)(=O)N1CCCC(C(=O)N2CCN(c3cc(C)ccc3C)CC2)C1 (configuration not stated) | 231 | 367 | > 82300 |

| SMILES | EC50 [1] [nM] | EC50 [2] [nM] | CC50 [3] [nM] |
| --- | --- | --- | --- |
| O=C1c2ccccc2C2=Nc3ccccc3SC(c3cccc(F)c3)C12 (configuration not stated) | 86.7 | 135 | 30300 |
| Cc1ccc(-c2nn(-c3ccccc3)c3[nH]c(=O)c(CNCc4ccccc4)cc23)cc1 | 1610 | 467 | > 100000 |
| CC(C)CCNCC(O)Cn1c2ccc(Br)cc2c2cc(Br)ccc21 (configuration not stated) | 270 | 88.5 | 19000 |
| N=c1n(Cc2ccccc2)c2ccccc2n1CC(O)c1ccc(Br)cc1 (configuration not stated) | 254 | 101 | 21800 |
| CCN1CC=C2C(C#N)=C(N)C(C#N)(C#N)[C@H](c3ccc(C)s3)[C@H]2C1 | 1680 | 464 | > 100000 |
| CCOC(=O)C1CCN(C(=O)c2c(C)oc3c2C(=O)c2ccccc2C3=O)CC1 | 201 | 103 | 22200 |
| C=CC1CN2CCC1CC2C(OC(=O)C1CC1)c1ccnc2ccccc12 (configuration not stated) | 84.7 | 199 | 42200 |
| O=C1C(Nc2ccc(Cl)cc2)=C(N2CCCCC2)C(=O)c2ccccc21 | 319 | 250 | 53200 |
| COc1ccc(C(Cc2ccccc2)NC2CN3CCC2CC3)cc1 (configuration not stated) | 4260 | 308 | > 65000 |
| CCOc1ccc(NC(=O)CSc2nncc(O)n2)cc1 | 859 | 473 | > 100000 |
| Cc1ccc(C(=O)NC2CCN(S(=O)(=O)c3c(C)cc(C)cc3C)CC2)cc1 | 1440 | 472 | > 100000 |
| CC(=O)N(C1=C(N2CCCC2)C(=O)c2ccccc2C1=O)c1ccc(I)cc1 | 553 | 224 | 47000 |
| Cc1ccn2c(NC(C)(C)CC(C)(C)C)c(-c3ccccc3OC(=O)c3ccc(C)c([N+](=O)[O-])c3)nc2c1 | 744 | 47.7 | > 10000 |
| O=C(ON=C(c1ccncc1)c1ccc(Cl)cc1)c1ccccc1 | 1240 | > 48 | > 10000 |
| COc1ccc(OC)c(C2CC(=O)N3CN(Cc4ccccc4)CSC3=C2C#N)c1 (configuration not stated) | 638 | 482 | > 100000 |
| Clc1ccc2c(c1)c1cc(Cl)ccc1n2CC1CO1 (configuration not stated) | 341 | 277 | 57400 |
| COc1ccc(OC)c(-c2ccc(C(=O)N3CCN(CC=Cc4ccccc4)CC3)c(N(C)C)n2)c1 | 94.6 | 145 | 32800 |
| CC(=O)Nc1ccc(NS(=O)(=O)c2cc([N+](=O)[O-])ccc2Cl)cc1 | > 12500 | 475 | > 100000 |
| O=C1C2C(C(=O)N1c1ccc(F)cc1)C1(c3ccccc3)C(=O)C2(c2ccccc2)C(c2ccccc2)=C1c1ccccc1 (configuration not stated) | 563 | 474 | > 100000 |
| COc1ccc(C2CC(=O)C3=C(C2)NC(C)=C(C(=O)OC2CCCC2)C3c2cccc(Cl)c2)cc1OC (configuration not stated) | 201 | 75.8 | 16800 |
| CCCNC(=O)N1CCC2(CC1)CC(=O)c1cc(C)ccc1O2 | 870 | 448 | > 100000 |
| CCOC(=O)C1=C(CC)NC2=C(C(=O)CCC2)C1c1ccc(OC)c(Br)c1 (configuration not stated) | 1070 | 387 | > 83800 |
| CCCCCCCC(O)(c1ccc(OCC)cc1)C(CN1CCCCC1)c1ccccc1 (configuration not stated) | 1180 | 456 | > 100000 |
| OC(Cn1cnc(-c2ccccc2)c1-c1ccccc1)Cn1c2ccc(Cl)cc2c2cc(Cl)ccc21 (configuration not stated) | 589 | 99.7 | 21200 |
| COC(=O)C1=C(C)NC2=C(C(=O)CC(c3ccccc3Cl)C2)C1c1ccc(OC)c(OC)c1 (configuration not stated) | 1290 | 478 | > 100000 |
| O=C(Nc1ccc(OC(F)(F)F)cc1)c1cnn2c1NC(c1cccs1)CC2C(F)(F)F (configuration not stated) | 492 | 241 | > 50000 |
| Cc1ccc(O)c(NC(=O)c2cnn3c(C(F)(F)F)cc(-c4ccccc4)nc23)c1 | 1820 | 472 | > 100000 |
